Patent US6734180B1, “NF-κB inhibitor comprising an indan derivative as an active ingredient” (Daiichi Suntory Pharma Co., Ltd., priority 1998, dated 2004)
Read-outs that look alike come from different tables or passages of the source.

What was measured:
[1] = test system: human inducible NO synthase (hiNOS) gene; assay: Expression of the human inducible NO synthase (hiNOS) gene, firefly luciferase reporter in A5 cells; type: cell-based; conditions: IL-1β (1 ng/ml)+TNF-α (500 ng/ml), firefly luciferase activity 24 hours later, read-out: IL-1β + TNF-α stimulation IC50 (inhibitory effect on the expression of the hiNOS gene)
Description: Experiment 1. Effect of compounds on the expression of the human inducible NO synthase (hiNOS) gene
The experiment was carried out using A5 cells (human lung carcinoma cell line A549 cells (ATCC, CCL185) stably transfected with NOS53+F) previously reported by the inventors (Nunokawa, Y. et al., (1997) Biochem. Biophys. Res. Commun. 233, 523-526).
Compounds described in Examples were added to A5 cells simultaneously with IL-1β (1 ng/ml)+TNF-α (500 ng/ml) to investigate the inhibitory effect on the firefly luciferase activity 24 hours later.
The activity of firefly luciferase was measured based on the protocol by the Luciferase Assay System (Promega, U.S.A.).
The inhibitory effect of the compounds claimed in the present invention on the expression of the hiNOS gene was expressed as IC50 value in Table 1.

NO production = NO production of LPS-stimulated RAW264.7 cells (Griess' method); type: cell-based, mouse; conditions: LPS (10 μg/ml), 24 hours after the stimulation
Excerpt: (§1) Experiment 3. Effect of lipopolysaccharide (LPS) stimulation on NO and TNF-α production
(§2) When various cells are stimulated with LPS, NV-κB is activated which results in the expression and induction of proteins represented by NOS, TNF-α, and thereby the cells start to produce NO and/or TNF-α.
To determine the production of NO indirectly, the Griess' method utilizing a diazo reaction is useful (Green, L. C. et al., (1982) Anal. Biochem, 126, 131-138). In the Griess' method, the Griess' reagent prepared by mixing naphthylethylenediamine and sulfanilic acid is reacted with NO2^− ion in the culture medium, and the color development thereof is measured by an absorbance at 540 nm.
(§3) The inhibitory effect of these compounds was expressed as IC50 value in Table 3.

TNF-α production = TNF-α production of LPS-stimulated RAW264.7 cells (ELISA); type: cell-based, mouse; conditions: RAW264.7 cells stimulated with LPS for 4 hours
Excerpt: as §1, §2, §3

[2] = test system: sea pansy luciferase gene (pRL-SV40) under the control of SV40 promoter; assay: Sea pansy luciferase under SV40 promoter (NF-κB independent) in A5 cells; type: cell-based, human; conditions: no stimulation, compound at 1 μg/ml for 4 hours
Description: The activity of sea pansy luciferase was measured based on the protocol by the Dual Luciferase Reporter Assay System (Promega, U.S.A.).

NF-κB = assay: NF-κB-controlled firefly luciferase in A549/NF-κBLuc cells; type: cell-based, human
Description: Experiment 2. Effect of compounds on A549 cells (A549/NF-κBLuc) stably transfected with luciferase plasmid (pNFκB-Luc) having the NF-κB regulatory sequence
Using lipofectamine (Lifetech oriental K.K., Tokyo), pNFκB-Luc (Stratagene, U.S.A.) were cotransfected with pSV2neo (Clontech, U.S.A.) into A549 cells according to the conventional method, and A549/NF-κBLuc stably transfected with pNFκB-Luc were selected by adding G418 sulfate ((1 mg/ml) Lifetech Oriental K.K.) to the culture medium.
NF-κB inhibiting activity was expressed as IC50 values in Table 2.

[3] = test system: rat models of carageenin foot pad edema; assay: Carrageenin foot pad edema in rats; type: in vivo; conditions: male Wistar rats, 1 mg/kg intraperitoneally 15 minutes before carrageenin
Description: FIG. 1 is a graph showing the result of Experiment 4 in which the compounds of Example 32 were studied using rat models of carageenin foot pad edema. Each point represents the mean±SE (n=5). Dunnett's test was carried out and the results are shown by * p<0.05 and ** p<0.01.
An aqueous solution of 1% λ-carrageenin (Wako Pure Chemical Industries) in physiological saline (0.1 ml) was intradermally administered to the pad of the left paw of 6-week old male Wistar rats weighing 149 g to 171 g, and changes in the volume of the paw were measured for indicated period. The test compound (0.3, 1 mg/kg) described in Example 32 was suspended in a solution of 0.5% hydroxypropyl cellulose in physiological saline (EPC, Nippon Soda Co., Ltd.) and was intraperitoneally given 15 minutes before the administration of carrageenin. For the control group, a solution of 0.5% HPC in physiological saline was used.

Compound | IC50 ([1]; Homo sapiens) [nM] | IC50 (NO production; Mus musculus) [nM] | IC50 (TNF-α production; Mus musculus) [nM] | further results
Cc1csc2ncnc(NC3Cc4ccccc4C3)c12 [Example 1, 4-(2-indanylamino)-5-methylthieno[2,3-d]pyrimidine] | 280 | 710 | 1100 | 
Cc1noc2ncnc(NC3Cc4ccccc4C3)c12 [Example 10, 3-methyl-4-(2-indanylamino)isoxazolo[5,4-d]pyrimidine] |  |  |  | melting point: 208 °C
Cc1csc2ncnc(NC3Cc4ccc(C(=O)NCc5ccccc5)cc4C3)c12 (stereo not shown) [Example 31, N-benzyl-2-(5-methylthieno[2,3-d]pyrimidine-4-yl)amino-5-indan carboxamide] | 2.4 | 24 | 48 | influence on the activity of sea pansy luciferase [2]: had no influence
Cc1csc2ncnc(NC3Cc4ccc(C(=O)N5CCOCC5)cc4C3)c12 (stereo not shown) [Example 32, 2-[5-methylthieno[2,3-d]pyrimidine-4-yl]aminoindan-5-carboxylic acid morpholinamide] |  |  |  | IC50 [1]: 51 nM; IC50 (NF-κB; IL-1β (1 ng/ml) for 4 hours, read-out: IL-1β stimulation IC50 (NF-κB inhibiting activity)): 51 nM; IC50 (NF-κB; TNF-α (500 ng/ml) for 4 hours, read-out: TNF-α stimulation IC50 (NF-κB inhibiting activity)): 89 nM; influence on the activity of sea pansy luciferase [2]: had no influence; IC50 (NO production): 25 nM; IC50 (TNF-α production): 51 nM; edema formation at 2 hours ([3]; 2 hours): significantly suppressed edema formation; edema suppression at 3 hours and after ([3]; 3 hours and after): high rate of edema suppression
c1ccc2c(c1)CC(Nc1ncnc3nc[nH]c13)C2 [Example 37, 6-(2-indanylamino)purine] |  |  |  | melting point: ≥ 300 °C

Further lines, with some results ahead:

IC50 ([1]; Homo sapiens) [nM] | IC50 (NO production; Mus musculus) [nM] | IC50 (TNF-α production; Mus musculus) [nM] | Compound | further results
800 |  |  | c1ccc2c(c1)CC(Nc1ncnc3occc13)C2 [Example 6, 4-(2-indanylamino)furo[2,3-d]pyrimidine] | 
64 | 64 | 160 | CC(C)c1csc2ncnc(NC3Cc4ccccc4C3)c12 [Example 22, 4-(2-indanylamino)-5-isopropylthieno[2,3-d]pyrimidine] | 
150 |  |  | Cc1csc2ncnc(NC3Cc4ccc(Oc5ccccc5)cc4C3)c12 (stereo not shown) [Example 25, 4-(5-phenoxyindan-2-yl)amino-5-methylthieno[2,3-d]pyrimidine] | 
